Test results: BindingDB's records for doi:10.1016/s0960-894x(98)00542-3 (University of Tokyo, 1998)

Molecular target: Chitinase (Trichoderma)
Experiment: Compound was evaluated for inhibitory activity against Trichoderma Chitinase

Row | IC50 | SMILES
1 | 41 nM | CC(=O)NC(/C=N/NC(=O)CCCCCNC(=O)CCCCC1SC[C@H]2NC(=O)N[C@@H]12)C(OC(CO)CO)OC1C(CO)OC(OC2C(O)C3N=C(N(C)C)OC3C2CO)C(NC(C)=O)C1O (some centres undefined)
2 | 80 nM | CC(=O)NC(CO)C(OC(CO)CO)OC1C(CO)OC(OC2C(O)C3N=C(N(C)C)OC3C2CO)C(NC(C)=O)C1O (centres undefined)
3 | 41.1 nM | CC(=O)NC(/C=N/NC(=O)CCCCCNC(=O)CCCCC1SC[C@H]2NC(=O)N[C@@H]12)C(OC(C=O)CO)OC1C(CO)OC(OC2C(O)C3N=C(N(C)C)OC3C2CO)C(NC(C)=O)C1O (some centres undefined)
4 | 7.53 nM | CC(=O)NC(/C=N/NC(=O)CCCCCNC(=O)CCCCC1SC[C@@H]2NC(=O)N[C@H]12)C(OC(/C=N/NC(=O)CCCCCNC(=O)CCCCC1SC[C@@H]2NC(=O)N[C@H]12)CO)OC1C(CO)OC(OC2C(O)C3N=C(N(C)C)OC3C2CO)C(NC(C)=O)C1O (some centres undefined)
